Test results reported in PMC10666548, “Identification of the bacterial metabolite aerugine as potential trigger of human dopaminergic neurodegeneration” (Environment international, 2023).
Read-outs that look alike come from different tables or passages of the source.

Legend:
[1] = test system: peripheral nervous system cells (iPSC-derived peripheral neurons); experiment: iPSC-derived neuron viability, calcein-AM & H-33342 imaging; format: cell-based, human; conditions: 24 h, concentrations up to 100 μM
Description: The human iPSC (Sigma iPSC0028 (EPITHELIAL-1, #IPSC0028) were maintained and differentiated towards immature dorsal root ganglia neurons according to [Hoelting et al. (2016)] ([Hoelting et al., 2016]). Briefly, a total of 90,000 cells/cm^2 were seeded on Matrigel. The differentiation was initiated with neural differentiation medium (KSR-S; Dulbecco’s modified Eagle’s medium [DMEM/F12] containing 15% knockout serum replacement, 1 × Glutamax, 1 × nonessential amino acids, and 50 μM ß-mercaptoethanol) supplemented with 17.5 ng/ml noggin, 10 μM SB-431642 from day of stem cell differentiation (DoD) DoD0 to DoD5. Starting on DoD2 CHIR99021 (1.5 μM), SU5402 (5 μM) and DAPT (5 μM) were added. […]
The assays were performed as described previously ([Hoelting et al., 2016]; [Klima et al., 2021]; [Krug et al., 2013]). […] 24 h after treatment the Calcein/Hoechst readout was performed.
Neurite area (NA) and viability (V) were assessed as described previously ([Stiegler et al., 2011]). […] Image acquisition was performed using an Array-Scan VTI HCS Reader (Cellomics, PA, USA) equipped with a Hamamatsu ORCA-ER camera. […]

[2] = test system: Neisseria gonorrhoeae MS11; experiment: Bacterial growth assay; format: cell-based; conditions: 20 μM, log growth phase
Description: Neisseria gonorrhoeae MS11 was cultured in PPM medium (15 g/l Proteose Pepton, 1 g/l soluble starch, 5 g/l NaCl, 4 g/l KH2PO4, 1 g/l K2HPO4, pH 7.5) for liquid culture and on GC plates (BD Difco™ GC Medium Base), both supplemented with 1 % vitamin mix (100 g/l glucose, 10 g/l glutamine, 26 g/l L-cysteine, 100 mg/l carboxylase, 250 mg/l NAD, 500 μl/l Fe(NO3)3, 150 mg/l arginine, 3 mg/l thiamine-HCl, 10 mg/l vitamine B12, 13 mg/l p-amino benzoic acid, 1.1 g/l L-cystine, 1 g/l adenine, 500 mg/l uracil, 30 mg/l guanine). Strains were either cultivated at 37 °C and 220 rpm (liquid medium) or at 37 °C and 5 % CO2 (solid medium).
Bacteria were grown as described above on solid medium. Prior to substance exposure, bacteria were pre-cultured in liquid medium for at least 2 h. Optical density was determined and a volume equal to an OD550 of 0.2 for Neisseria gonorrhoeae MS11 (equates a final OD550 of 0.04) and an OD600 of 0.2 for Enterococcus faecalis (equates a final OD600 of 0.04) was inoculated into 5 ml of the respective liquid medium. Compound was added at the indicated amounts. […] Samples were incubated for either 10.5 h, until they reached a stationary phase (three measured values in stationary phase) or until they reached an OD of 2.5. Optical density was determined every 0.5 h at OD550 for Neisseria gonorrhoeae MS11 and at OD600 for Enterococcus faecalis. […]

[3] = Cytotoxicity to mature (d6) LUHMES neurons, calcein-AM & H-33342 high content imaging; format: cell-based, human; conditions: human, mature LUHMES d6, 24 h exposure; read-out: EC50 (half-maximal cytotoxic potency), cell viability
Description: (§1) For toxicity assessment of mature LUHMES neurons, precursor cells were pre-differentiated for 2 days in cell culture flasks pre-coated as described above and differentiation medium. Then, 45′000 cells per well were seeded in differentiation medium into standard 96-well plates pre-coated as described above. They were incubated at 37 °C and 5% CO2 for 4 days before compound treatment. At this time, cells were >99% post-mitotic and had established an extensive neurite network ([Scholz et al., 2011]) The cell viability was assessed via the Calcein/Hoechst readout, the LDH assay and the resazurin reduction assay.
(§2) Neurite area (NA) and viability (V) were assessed as described previously ([Stiegler et al., 2011]). In brief, cells were stained with 1 μM calcein-AM and 1 μg/ml H-33342 for 30 min at 37 °C and 5% CO2. Image acquisition was performed using an Array-Scan VTI HCS Reader (Cellomics, PA, USA) equipped with a Hamamatsu ORCA-ER camera. 10 fields per well were imaged with 2 channels at 20x magnification (2×2 pixel binning). Excitation/emission wavelengths of 365 ± 50/535 ± 45 nm were used for Hoechst detection in channel 1 and 474 ± 40/535 ± 45 nm were used for calcein detection in channel 2.
(§3) Nuclei were identified in channel 1 depending on intensity, area, size and shape. Their outlines were expanded by 3.2 μm to define a virtual cell soma area (VCSA), which was bigger than the average cell soma to prevent false positive NAs. All calcein-positive pixels were defined as viable cellular structures (VCSs). The NA was automatically calculated by excluding the VCSAs from the VCSs. Furthermore all nuclei co-localizing with VCSs were defined as alive.

[4] = test system: human dopaminergic neurons (LUHMES cells); experiment: as above; format: cell-based; conditions: for EC50: mature LUHMES d6, 24 h exposure, read-out: EC50 (half-maximal cytotoxic potency), cell viability
Description: as §1, §2, §3

[5] = Cytotoxicity to immature (d2) LUHMES cells, calcein-AM & H-33342 imaging; format: cell-based; conditions: human, immature LUHMES d2, 24 h exposure, read-out: EC50 (half-maximal cytotoxic potency), cell viability
Description: The assays were performed as described previously ([Hoelting et al., 2016]; [Klima et al., 2021]; [Krug et al., 2013]). In brief, 30′000 cells per well were seeded on d2 (LUHMES) / d0 (peripheral neurons, Cortex.4U, CNS.4U) in their respective differentiation media into standard pre-coated 96-well plates. They were incubated for 1 h at 37 °C and 5% CO2 before treatment. 24 h after treatment the Calcein/Hoechst readout was performed.
as §2, with “Excitation/emission wavelengths of 365 ± 50/535 ± 45 nm were used for Hoechst detection in channel 1 and 474 ± 40/535 ± 45 nm were used for calcein detection in channel 2.” left out
Nuclei were identified in channel 1 depending on intensity, area, size and shape. […] The NA was automatically calculated by excluding the VCSAs from the VCSs. […]
Fig. 3. […] The cell viability was assessed 24 h later by calcein-AM & H-33342 staining and high content imaging. […] The overall cell viability was assessed by measuring resazurin reduction in technical triplicates. […] The cell viability was assessed 24 h later by calcein-AM & H-33342 staining and high content imaging. […]

Structure (SMILES): OCC1CSC(c2ccccc2O)=N1 (stereo not shown) [aerugine, 2-[4-(hydroxymethyl)-4,5-dihydro-1,3-thiazol-2-yl]phenol]
- effect on cell viability [1]: no effect
- viability or growth [2]: not affected in viability or growth
- EC50 at 24 h [3]: 4.1 ± 0.8 µM
- cytotoxicity to DAergic neurons (viability) ([4]; d6 LUHMES, 24 h (24 h and 48 h for purified compounds)): cytotoxic to DAergic neurons in a time- and concentration-dependent manner
- effect on neurite area ([4]; d6 LUHMES, 24 h assay setup): affected neurites to the same extent and at similar concentrations as cell bodies
- cytotoxic potency range ([4]; d6 LUHMES, purified compound): low μM range
- EC50 ([4]; listed as Aerugine): 3 to 4 µM
- EC50 [4]: 3.1 ± 0.7 µM
- increase of aerugine sensitivity by neuronal maturity state ([4]; mature vs proliferating LUHMES): approximately three-fold
- EC50 at 24 h [5]: 9.3 ± 1.1 µM
